# Values joined by “and” are separate entries in the source; they are usually repeats but may differ in a detail not shown here. Equal entries are not always repeated.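 Results reflect a 48-hour exposure of cells in 96-well plates to compound at five concentrations. GI50: concentration for 50% inhibition of growth. TGI is the concentration that stops growth completely.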
# Assays:
# Experiment in all cases: NCI tumour cell line growth inhibition, 48 h
# [1] = tested on: ACHN renal
# [2] = tested on: HL-60(TB) leukemia
# [3] = tested on: 786-0 renal
# [4] = tested on: MDA-N
# [5] = tested on: MOLT-4 leukemia
# [6] = tested on: T-47D breast
# [7] = tested on: CCRF-CEM leukemia
# [8] = tested on: NCI-H522 lung
# [9] = tested on: A549 NSCLC
# [10] = tested on: NCI-H23 lung
# [11] = tested on: COLO 205 colon
# [12] = tested on: A498 renal
# [13] = tested on: HCT-116 colon
# [14] = tested on: SF-295 CNS
# [15] = tested on: RXF 393 renal
# [16] = tested on: OVCAR-3 ovarian
# [17] = tested on: OVCAR-5 ovarian
# [18] = tested on: MALME-3M melanoma
# [19] = tested on: HT29 colon
# [20] = tested on: SK-MEL-28 melanoma
# [21] = tested on: EKVX NSCLC
# [22] = tested on: PC-3 prostate
# [23] = tested on: SF-268 CNS
# [24] = tested on: MDA-MB-231 breast
# [25] = tested on: TK-10 renal
# [26] = tested on: LOX IMVI melanoma
# [27] = tested on: MDA-MB-435
# [28] = tested on: HCC-2998 colon
# [29] = tested on: M14 melanoma
# [30] = tested on: CAKI-1 renal
# [31] = tested on: HOP-62 NSCLC
# [32] = tested on: SNB-19 CNS
# [33] = tested on: U251 CNS
# [34] = tested on: IGROV1 ovarian
# [35] = tested on: HOP-92 NSCLC
# [36] = tested on: HS 578T breast
# [37] = tested on: MCF7 breast
# [38] = tested on: SF-539 CNS
# [39] = tested on: OVCAR-4 ovarian
# [40] = tested on: K-562 leukemia
# [41] = tested on: OVCAR-8 ovarian
# [42] = tested on: NCI-H226 lung
# [43] = tested on: SW-620 colon
# [44] = tested on: SK-OV-3 ovarian
# [45] = tested on: BT-549 breast
# [46] = tested on: HCT-15 colon
# [47] = tested on: NCI/ADR-RES ovarian
# [48] = tested on: SK-MEL-5 melanoma
# [49] = tested on: UO-31 renal
# [50] = tested on: UACC-257 melanoma
# [51] = tested on: SNB-75 CNS
# [52] = tested on: NCI-H460 lung
# [53] = tested on: SN12C renal
# [54] = tested on: SR leukemia
# [55] = tested on: UACC-62 melanoma
# [56] = tested on: DU-145 prostate
# [57] = tested on: KM12 colon
# [58] = tested on: SK-MEL-2 melanoma
# [59] = tested on: RPMI-8226 leukemia
structure (smiles),measurement,setting,value
CCC(C)C1NC(=O)C(NC(=O)C(CC(C)C)N(C)C(=O)[C@@H]2CC(O)CN2C(=O)[C@H](C)O)C(C)OC(=O)[C@H](Cc2ccc(OC)cc2)N(C)C(=O)[C@@H]2CCCN2C(=O)[C@H](CC(C)C)NC(=O)C(C)C(=O)[C@H](C(C)C)OC(=O)CC1O (stereo partly specified),GI50,[1],131 nM
same,TGI,[1],8740 nM and 5220 nM
same,GI50,[2],154 nM
same,TGI,[2],2030 nM
same,GI50,[3],76.2 nM
same,TGI,[3],1700 nM and 2280 nM
same,GI50,[4],29.2 nM
same,TGI,[4],1070 nM and 1110 nM
same,GI50,[5],14.2 nM
same,GI50,[6],13.7 nM
same,TGI,[6],710 nM and 2070 nM
same,GI50,[7],27.6 nM
same,TGI,[7],280 nM
same,GI50,[8],20.8 nM
same,TGI,[8],902 nM and 234 nM
same,GI50,[9],27.7 nM
same,TGI,[9],1910 nM
same,TGI,[10],172 nM
same,GI50,[11],16.3 nM
same,TGI,[11],273 nM and 1690 nM
same,GI50,[12],325 nM
same,TGI,[12],4840 nM and 3010 nM
same,GI50,[13],< 10 nM
same,TGI,[13],1010 nM and 1600 nM
same,GI50,[14],26.8 nM
same,TGI,[14],2050 nM and 388 nM
same,GI50,[15],< 10 nM
same,TGI,[15],481 nM and 112 nM
same,GI50,[16],79.3 nM
same,TGI,[16],1260 nM and 982 nM
same,GI50,[17],417 nM
same,TGI,[17],2530 nM and 2140 nM
same,GI50,[18],13 nM
same,TGI,[18],1070 nM and 185 nM
same,GI50,[19],16.9 nM
same,TGI,[19],2230 nM and 1090 nM
same,GI50,[20],< 10 nM
same,TGI,[20],467 nM and 256 nM
same,TGI,[21],3320 nM
same,GI50,[22],60.3 nM
same,TGI,[22],1830 nM and 416 nM
same,GI50,[23],45.1 nM
same,TGI,[23],1700 nM and 1040 nM
same,GI50,[24],92.6 nM
same,TGI,[24],991 nM and 3950 nM
same,GI50,[25],224 nM
same,TGI,[25],4520 nM and 2050 nM
same,GI50,[26],21.8 nM
same,TGI,[26],1060 nM and 193 nM
same,GI50,[27],36.5 nM
same,TGI,[27],705 nM and 410 nM
same,GI50,[28],< 10 nM
same,TGI,[28],637 nM and 399 nM
same,GI50,[29],11.4 nM
same,TGI,[29],762 nM and 202 nM
same,GI50,[30],229 nM
same,TGI,[30],2990 nM
same,GI50,[31],28 nM
same,TGI,[31],1400 nM and 394 nM
same,GI50,[32],< 10 nM
same,TGI,[32],3390 nM and 346 nM
same,GI50,[33],< 10 nM
same,TGI,[33],1630 nM and 677 nM
same,GI50,[34],19.1 nM
same,TGI,[34],1400 nM and 312 nM
same,GI50,[35],12.7 nM
same,TGI,[35],1990 nM and 285 nM
same,GI50,[36],< 10 nM
same,TGI,[36],283 nM and 31.7 nM
same,GI50,[37],< 10 nM
same,GI50,[38],10.4 nM
same,TGI,[38],211 nM and 335 nM
same,GI50,[39],24.6 nM
same,TGI,[39],1140 nM and 1170 nM
same,GI50,[40],25 nM
same,TGI,[40],352 nM
same,GI50,[41],107 nM
same,TGI,[41],4380 nM and 2620 nM
same,GI50,[42],79.9 nM
same,TGI,[42],521 nM and 572 nM
same,GI50,[43],58.1 nM
same,TGI,[43],2300 nM and 919 nM
same,GI50,[44],20.9 nM
same,TGI,[44],1110 nM and 404 nM
same,GI50,[45],25.9 nM
same,TGI,[45],855 nM and 233 nM
same,GI50,[46],315 nM
same,TGI,[46],12700 nM
same,TGI,[47],> 100000 nM
same,GI50,[48],< 10 nM
same,TGI,[48],445 nM and 57.4 nM
same,GI50,[49],581 nM
same,TGI,[49],5650 nM
same,GI50,[50],76.8 nM
same,TGI,[50],1940 nM and 1850 nM
same,GI50,[51],33.8 nM
same,TGI,[51],1250 nM and 614 nM
same,GI50,[52],19 nM
same,TGI,[52],1160 nM and 1400 nM
same,GI50,[53],57.2 nM
same,TGI,[53],806 nM and 3200 nM
same,GI50,[54],18.9 nM
same,TGI,[54],> 100000 nM
same,GI50,[55],< 10 nM
same,TGI,[55],361 nM and 49.5 nM
same,GI50,[56],88.4 nM
same,TGI,[56],3350 nM and 1850 nM
same,GI50,[57],< 10 nM
same,TGI,[57],735 nM and 173 nM
same,GI50,[58],< 10 nM
same,TGI,[58],342 nM and 206 nM
same,GI50,[59],69.5 nM
same,TGI,[59],1770 nM
C=C(Br)COc1ccc2c(C)cc(=O)oc2c1,TGI,[1],> 100000 nM
same,TGI,[2],> 100000 nM
same,TGI,[3],> 100000 nM
same,TGI,[4],> 100000 nM
same,TGI,[5],> 100000 nM
same,TGI,[6],87200 nM
same,TGI,[7],> 100000 nM
same,TGI,[8],> 100000 nM
same,TGI,[9],> 100000 nM
same,TGI,[10],> 100000 nM
same,TGI,[11],16700 nM
same,TGI,[12],> 100000 nM
same,TGI,[13],> 100000 nM
same,TGI,[15],81000 nM
same,TGI,[16],> 100000 nM
same,TGI,[17],> 100000 nM
same,TGI,[18],> 100000 nM
same,TGI,[19],> 100000 nM
same,TGI,[20],> 100000 nM
same,TGI,[21],> 100000 nM
same,TGI,[22],> 100000 nM
same,TGI,[23],> 100000 nM
same,TGI,[24],> 100000 nM
same,TGI,[25],> 100000 nM
same,TGI,[26],> 100000 nM
same,TGI,[27],> 100000 nM
same,TGI,[28],> 100000 nM
same,TGI,[29],> 100000 nM
same,TGI,[30],> 100000 nM
same,TGI,[31],> 100000 nM
same,TGI,[32],> 100000 nM
same,TGI,[33],> 100000 nM
same,TGI,[34],> 100000 nM
same,TGI,[35],> 100000 nM
same,TGI,[36],> 100000 nM
same,TGI,[37],19700 nM
same,TGI,[38],> 100000 nM
same,TGI,[39],> 100000 nM
same,TGI,[40],> 100000 nM
same,TGI,[41],> 100000 nM
same,TGI,[42],> 100000 nM
same,TGI,[43],> 100000 nM
same,TGI,[45],> 100000 nM
same,TGI,[46],> 100000 nM
same,TGI,[47],> 100000 nM
same,TGI,[48],37400 nM
same,TGI,[49],> 100000 nM
same,TGI,[50],> 100000 nM
same,TGI,[52],> 100000 nM
same,TGI,[53],> 100000 nM
same,TGI,[54],> 100000 nM
same,TGI,[56],> 100000 nM
same,TGI,[57],12100 nM
same,TGI,[58],> 100000 nM
same,TGI,[59],> 100000 nM
Nc1nc(N)c2c(n1)CCC(S(=O)(=O)c1ccc3ccccc3c1)C2 (stereo unspecified),TGI,[1],> 100000 nM
same,TGI,[2],23600 nM
same,TGI,[3],> 100000 nM
same,TGI,[4],> 100000 nM
same,TGI,[5],27200 nM
same,TGI,[6],> 100000 nM
same,TGI,[7],> 100000 nM
same,GI50,[8],2940 nM
same,TGI,[8],34500 nM
same,TGI,[9],> 100000 nM
same,TGI,[10],> 100000 nM
same,TGI,[11],34500 nM
same,TGI,[12],40000 nM
same,TGI,[13],> 100000 nM
same,TGI,[14],> 100000 nM
same,GI50,[15],2530 nM
same,TGI,[15],57800 nM
same,TGI,[16],> 82900 nM
same,TGI,[17],> 100000 nM
same,TGI,[18],42700 nM
same,TGI,[19],> 51200 nM
same,TGI,[20],> 100000 nM
same,TGI,[21],> 100000 nM
same,TGI,[22],> 100000 nM
same,TGI,[23],> 100000 nM
same,TGI,[24],> 60500 nM
same,TGI,[25],51400 nM
same,TGI,[26],> 100000 nM
same,TGI,[27],> 100000 nM
same,TGI,[28],26700 nM
same,TGI,[29],61000 nM
same,TGI,[30],> 100000 nM
same,TGI,[31],> 100000 nM
same,TGI,[32],> 85200 nM
same,TGI,[33],> 100000 nM
same,GI50,[34],1940 nM
same,TGI,[34],> 100000 nM
same,TGI,[35],> 72200 nM
same,GI50,[36],5050 nM
same,TGI,[36],77600 nM
same,TGI,[37],> 100000 nM
same,TGI,[38],> 100000 nM
same,GI50,[39],4310 nM
same,TGI,[39],> 100000 nM
same,GI50,[40],315 nM
same,TGI,[40],63600 nM
same,TGI,[41],> 100000 nM
same,TGI,[42],> 100000 nM
same,TGI,[43],> 100000 nM
same,TGI,[44],> 100000 nM
same,TGI,[45],> 100000 nM
same,TGI,[46],> 100000 nM
same,TGI,[47],> 100000 nM
same,TGI,[48],19200 nM
same,TGI,[49],> 75300 nM
same,TGI,[50],> 100000 nM
same,GI50,[51],12200 nM
same,TGI,[51],> 100000 nM
same,TGI,[52],> 67000 nM
same,TGI,[53],> 100000 nM
same,TGI,[54],17800 nM
same,GI50,[55],678 nM
same,TGI,[55],> 100000 nM
same,TGI,[56],> 100000 nM
same,TGI,[57],> 100000 nM
same,GI50,[58],9790 nM
same,TGI,[58],> 100000 nM
same,TGI,[59],> 84400 nM

# From PubChem BioAssay (NCI)
